# Where two headings read alike, the source gives them in different places.
# What was measured:
# [1] = test system: LPS induced IL-6 release in human PBMC cells; experiment: Inhibition of LPS induced IL-6 release in human PBMC cells (IL-6 HTRF assay); assay type: cell-based; settings: 2 h compound pre-incubation, LPS 5 ng/mL for 4 h, IL-6 in supernatant
# Method: I. Recovery and seeding of PBMC, and treatment of compounds (human PBMC cells were purchased from Oricell, item number: Fpb003F)
# • 1. Preparation of compounds Sample dilutions of a series of concentrations were obtained by dilution in DMSO using Bravo, and then 80 nL was transferred into a cell plate using ECHO. The final concentration of DMSO in the cell culture medium is 0.1%. • 2. Frozen cells were quickly thawed in a 37°C water bath and stirred continuously. • 3. 25 mL of fresh preheated culture medium was added into a 50 mL centrifuge tube, and then the cells were added dropwise. Then the cells were centrifuged at 2,000 rpm for 10 min. • 4. […] The total number of cells required was calculated based on cell concentration to perform the assay. 7×10e4 cells were added per well (70 µL). • 6. The cell plate was placed and incubated in a 5% CO2 incubator at 37°C for 2 h.
# • 1. LPS: A stock solution (1 mg/mL) was diluted in dH2O, aliquoted, and stored at -80°C. • 2. 8-fold LPS was added per well (10 µl/well) (with a final concentration of 5 ng/mL). The cells were incubated in a 5% CO2 incubator at 37°C for 4 h. • 3. 70 µl of supernatant was collected per well using Bravo, and then IL-6 HTRF assay was performed. The supernatant may be stored at -80°C.
# 1. Preparation of standards and sample dilutions. 2. 16 µL of each sample was taken using Bravo and added to wells. Then 16 µL of each standard was taken and added to corresponding wells. 3.4 µL of a premixed IL6 antibody working solution was added to each of all wells. 4. The cell plate was sealed and incubated at room temperature for 2 h. 5.
# [2] = molecular target: T1, IRAK4-HiBiT fusion protein (Homo sapiens, UniProt Q9NWZ3); experiment: Detection of HiBiT-IRAK4 proteolysis levels in K562 IRAK4-HiBiT cells (Nano-Glo HiBiT Lytic assay); assay type: cell-based
# T1 construct: K562 from ATCC
# T1 sequence (Q9NWZ3 1-460): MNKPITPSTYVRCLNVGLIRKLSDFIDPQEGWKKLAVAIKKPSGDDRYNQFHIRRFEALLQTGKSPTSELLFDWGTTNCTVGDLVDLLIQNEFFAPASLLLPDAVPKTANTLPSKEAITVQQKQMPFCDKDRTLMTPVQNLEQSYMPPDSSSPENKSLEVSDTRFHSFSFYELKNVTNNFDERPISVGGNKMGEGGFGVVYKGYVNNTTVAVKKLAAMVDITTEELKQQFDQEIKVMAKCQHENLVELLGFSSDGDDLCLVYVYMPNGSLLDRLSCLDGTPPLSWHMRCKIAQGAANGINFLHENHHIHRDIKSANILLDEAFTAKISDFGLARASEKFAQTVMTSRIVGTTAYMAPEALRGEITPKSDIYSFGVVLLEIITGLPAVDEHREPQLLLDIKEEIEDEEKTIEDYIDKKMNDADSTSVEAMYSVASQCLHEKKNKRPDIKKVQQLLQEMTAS
# Method: Test Example 1 Detection of HiBiT-IRAK4 proteolysis levels in K562 IRAK4-HiBiT cells co-incubated with compounds of the present application • Reagents, devices, and consumables in experiments: • Nano-Glo Lytic Detection Assay, purchased from Promega; • EnVision, purchased from PerkinElmer; • Name of cell line: K562 IRAK4-HiBiT stable transformation cell strain (capable of stably expressing IRAK4-HiBiT fusion protein), constructed by Shanghai Bioduro Biologics Co., Ltd., where a K562 cell strain was purchased from ATCC. The culture medium is IMDM+10% FBS+1% P/S (volume percentage, where FBS is fetal bovine serum and P/S is Penicillin-Streptomycin, a 1:1 mixture of penicillin and streptomycin antibiotic solution (10,000 units/mL)).
# Cell culture: K562 IRAK4-HiBiT cells were incubated at 37°C, and passaged every 2-3 d, with a seeding density of 200,000 cells/mL.
# IRAK4-HiBiT proteolysis experiment: • Step 1: Cell seeding and treatment of compound • 1. A 10 mM compound mother liquor was prepared using DMSO, and a compound solution with a working concentration of 1,000 times (the highest working concentration is 10 µM, diluted 3.162 times, with a total of 10 concentration gradients) was prepared using Bravo automatic liquid processing platform. • 2. 40 nL of a compound working solution was transferred to a 384 well plate, and an equal volume of DMSO was added to positive control wells. • 3. 20 µL of a culture solution was added per well and shaken for 10 min. • 4.20 µL of a K562 IRAK4-HiBiT cell suspension was added per well (6,000 cells/well), and an equal volume of culture medium was added to negative control wells. • 5. The well plate was rotated at 1,000 rpm for 1 min. • 6. The cells were incubated in a 5% CO2 incubator at 37°C for 2 h or 6 h. • Step 2: HiBiT Lytic experiment • 1. The well plate was placed at room temperature to equilibrate for 30 min. • 2. 20 µL of Nano-Glo HiBiT Lytic reagent (trade name: Nano-Glo® HiBiT Lytic Detection Reagent) and the well plate was kept in the dark. • 3. The well plate was placed on an orbital shaker at 300 rpm for 5 min. • 4. The cells were incubated at room temperature for 10 min. • 5. The luminous value was read by Envision. • 6. Data was calculated and processed. Degradation degree%=(negative control - experimental well)/(negative control - positive control) * 100%. Using XL-fit software, a degradation curve was obtained by fitting using a 4 Parameter Logistic Model, and the values of Relative DC50 (nM) and Absolute DC50 (nM) were obtained.
# [3] = Pharmacokinetic behavior in mice (plasma concentration by LC-MS/MS); assay type: in vivo; settings: male ICR mice
# Method: (§1) Three healthy ICR mice (SPF grade, from Beijing Vital River Laboratory Animal Technology Co., Ltd.), male, weighing 18-25 g, were intravenously injected with a compound (1 mg/kg) at a volume of 5 mL/kg. The compound was prepared using 5% DMSO+10% Solutol+85% Saline (w/v), and the animals were not fasted before the experiment.
# as §1, with “were intragastrically administered” for “were intravenously injected with”, “compound (5” for “compound (1”, “of 10” for “of 5”
# Blood samples (about 0.05 mL each) were collected from the cheeks at 5 min, 15 min, 30 min, 1 h, 2 h, 4 h, 6 h, 8 h, and 24 h after intravenous administration, and at 5 min, 15 min, 30 min, 1 h, 2 h, 4 h, 6 h, 8 h, and 24 h after intragastrical administration, and anticoagulated with heparin sodium. Following collection, the blood samples were placed on ice and the plasma was centrifuged within 1 h (centrifugation conditions: 6,000 g, 3 min, 2 °C to 8°C). The concentration of the compounds in the plasma was determined by liquid chromatography tandem mass spectrometry. The plasma samples were stored in a -80°C freezer before analysis. With plasma concentration data at different time points, pharmacokinetic parameters were calculated by Phoenix WinNonlin8.2.0, and the results are shown in Table 4: Table 4
# [4] = Intragastric administration (5 mg/kg)
# [5] = Intravenous injection (1 mg/kg)
smiles,measurement,setting,value
CC(C)(O)c1cc2nn([C@H]3CC[C@H](CCN4CCN5c6ccc(C7CCC(=O)NC7=O)cc6OCC5C4)CC3)cc2cc1NC(=O)c1cccc(C(F)(F)F)n1 (stereo partly drawn) [Compound 1],IC50,[1],1.15 nM
same,Dmax,[2]; 6 h incubation,91.1%
same,DC50,"[2]; read-out: Absolute DC50, 6 h incubation",0.61 nM
same,DC50,"[2]; read-out: Relative DC50, 6 h incubation",0.46 nM
same,AUClast,[3]; [4],82491 ng·h/mL
same,Cmax,[3]; [4],5153 ng/mL
same,F%,[3]; [4],93.86%
same,T1/2,[3]; [4],8.03 h
same,AUClast,[3]; [5],12937 ng·h/mL
same,CL,[3]; [5],0.905 mL/min/kg
same,Cmax,[3]; [5],1740 ng/mL
same,Vss,[3]; [5],1.05 L/kg
